Experimental data from patent US8178523B2, “Compounds for the treatment of hepatitis C” (Bristol-Myers Squibb Company, priority 2008, dated 2012).

Key:
HCV NS5B RdRp = target: T1, HCV NS5B RdRp (Hepatitis C virus genotype 1b, UniProt Q9WMX2); assay: HCV NS5B RdRp enzyme assay; assay type: biochemical; settings: HCV NS5B genotype 1b, standard or modified RdRp assay not given
T1 construct: The protein was expressed with an 18 amino acid C-terminal truncation to enhance the solubility; made in house; host or cells: E. coli BL21(DE3)
T1 sequence (Q9WMX2 2420-2992): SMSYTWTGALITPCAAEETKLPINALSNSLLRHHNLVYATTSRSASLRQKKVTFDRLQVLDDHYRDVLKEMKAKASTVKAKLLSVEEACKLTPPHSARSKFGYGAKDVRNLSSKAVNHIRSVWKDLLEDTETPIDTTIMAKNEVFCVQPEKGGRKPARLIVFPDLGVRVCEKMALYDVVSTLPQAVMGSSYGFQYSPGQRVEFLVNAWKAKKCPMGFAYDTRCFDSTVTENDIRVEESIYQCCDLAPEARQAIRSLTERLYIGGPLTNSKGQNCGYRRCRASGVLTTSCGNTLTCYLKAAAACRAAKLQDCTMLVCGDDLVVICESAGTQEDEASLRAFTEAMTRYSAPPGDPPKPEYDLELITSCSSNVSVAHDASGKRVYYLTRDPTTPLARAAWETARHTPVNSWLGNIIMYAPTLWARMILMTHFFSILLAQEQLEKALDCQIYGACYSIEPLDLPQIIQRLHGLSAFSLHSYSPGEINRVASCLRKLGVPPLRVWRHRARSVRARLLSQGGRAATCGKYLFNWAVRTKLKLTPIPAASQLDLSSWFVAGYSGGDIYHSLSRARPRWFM
Method: HCV NS5B RdRp cloning, expression, and purification. The cDNA encoding the NS5B protein of HCV, genotype 1b, was cloned into the pET21a expression vector. The protein was expressed with an 18 amino acid C-terminal truncation to enhance the solubility. The E. coli competent cell line BL21(DE3) was used for expression of the protein. Cultures were grown at 37° C. for ˜4 hours until the cultures reached an optical density of 2.0 at 600 nm. The cultures were cooled to 20° C. and induced with 1 mM […]. Fresh ampicillin was added to a final concentration of 50 μg/ml and the cells were grown overnight at 20° C.
Cell pellets (3 L) were lysed for purification to yield 15-24 mgs of purified NS5B. The lysis buffer consisted of 20 mM Tris-HCl, pH 7.4, 500 mM NaCl, 0.5% triton X-100, 1 mM DTT, 1 mM EDTA, 20% glycerol, 0.5 mg/ml lysozyme, 10 mM MgCl2, 15 ug/ml deoxyribonuclease I, and Complete TM protease inhibitor tablets (Roche). After addition of the lysis buffer, frozen cell pellets were resuspended using a tissue homogenizer. To reduce the viscosity of the sample, aliquots of the lysate were sonicated on ice using a microtip attached to a Branson sonicator. The sonicated lysate was centrifuged at 100,000×g for 1 hr at 4° C. and filtered through a 0.2 μm filter unit (Corning).
The protein was purified using two sequential chromatography steps: Heparin sepharose CL-6B and polyU sepharose 4B (Pharmacia). The chromatography buffers were identical to the lysis buffer but contained no lysozyme, deoxyribonuclease I, MgCl2 or protease inhibitor and the NaCl concentration of the buffer was adjusted according to the requirements for charging the protein onto the column. Each column was eluted with a NaCl gradient which varied in length from 5-50 column volumes depending on the column type. After the final chromatography step, the resulting purity of the enzyme is >90% based on SDS-PAGE analysis. The enzyme was aliquoted and stored at −80° C.
Standard HCV NS5B RdRp enzyme assay. HCV RdRp genotype 1b assays were run in a final volume of 60 μl in 96 well plates (Corning 3600). The assay buffer is composed of 20 mM Hepes, pH 7.5, 2.5 mM KCl, 2.5 mM MgCl2, 1 mM DTT, 1.6 U RNAse inhibitor (Promega N2515), 0.01 mg/ml BSA (Sigma B6917), and 2% glycerol. All compounds were serially diluted (3-fold) in DMSO and diluted further in water such that the final concentration of DMSO in the assay was 2%. HCV RdRp genotype 1b enzyme was used at a final concentration of 28 nM. A polyA template was used at 6 nM, and a biotinylated oligo-dT12 primer was used at 180 nM final concentration. Template was obtained commercially (Amersham 27-4110). Biotinylated primer was prepared by Sigma Genosys. 3H-UTP was used at (0.29 μM total UTP). Reactions were initiated by the addition of enzyme, incubated at 30° C. for 60 min, and stopped by adding 25 μl of 50 mM EDTA containing SPA beads (4 μg/μl, Amersham RPNQ 0007). Plates were read on a Packard Top Count NXT after >1 hr incubation at room temperature.
Modified HCV NS5B RdRp enzyme assay. A modified enzyme assay was performed essentially as described for the standard enzyme assay except for the following: The biotinylated oligo dT12 primer was precaptured on streptavidin-coated SPA beads by mixing primer and beads in assay buffer and incubating at room temperature for one hour. Unbound primer was removed after centrifugation. The primer-bound beads were resuspended in 20 mM Hepes buffer, pH 7.5 and used in the assay at final concentrations of 20 nM primer and […] beads. Order of addition in the assay: enzyme (1.75 nM) was added to diluted compound followed by the addition of a mixture of template (0.36 nM), 3H-UTP (0.6 μCi, 0.29 μM), and primer-bound beads, to initiate the reaction; concentrations given are final. Reactions were allowed to proceed for 4 hours at 30° C.
IC50 values for compounds were determined using seven different [I]. […]

HCV replicon cells = assay: HCV replicon FRET / luciferase assay; assay type: cell-based; settings: Hepatitis C virus, 50% reduction in FRET or luciferase activity
Method: FRET Assay Preparation. The HCV FRET screening assay was performed in 96-well cell culture plates. The FRET peptide (Anaspec, Inc.) (Taliani et al., Anal. Biochem. 1996, 240, 60-67) contains a fluorescence donor, EDANS, near one end of the peptide and an acceptor, DABCYL, near the other end. The fluorescence of the peptide is quenched by […] resonance energy transfer (RET) between the donor and the acceptor, but as the NS3 protease cleaves the peptide the products are released from RET quenching and the fluorescence of the donor becomes apparent. The assay reagent was made as follows: 5× cell Luciferase cell culture lysis reagent from Promega (#E153A) diluted to 1× with dH2O, NaCl added to 150 mM final, the FRET peptide diluted to 20 μM final from a 2 mM stock.
To prepare plates, HCV replicon cells, with or without a Renilla luciferase reporter gene, were trypsinized and plated in a 96-well plate with titrated test compounds added in columns 3 through 12; columns 1 and 2 contained a control compound (HCV control inhibitor), and the bottom row contained cells with DMSO only. The plates were then placed in a CO2 incubator at 37° C.
Assays. Subsequent to addition of the test compounds described above (FRET Assay Preparation), at various times the plate was removed and Alamar blue solution (Trek Diagnostics, #00-100) was added to measure cellular toxicity. After reading in a Cytoflour 4000 instrument (PE Biosystems), plates were rinsed with PBS and then used for FRET assay by the addition of 30 ul of the FRET peptide assay reagent described above (FRET Assay Preparation) per well. The plate was then placed into the Cytoflour 4000 instrument which had been set to 340 excite/490 emission, automatic mode for up to 20 cycles and the plate read in a kinetic mode. Typically, the signal to noise using an endpoint analysis after the reads was at least three-fold. Alternatively, after Alamar blue reading, plates were rinsed with PBS, then used for luciferase assay using the Promega Dual-Glo Luciferase Assay System or the Promega EnduRen Live Cell Substrate assay.
Compound analysis was performed by quantification of the relative HCV replicon inhibition and the relative cytotoxicity values. To calculate cytoxicity values, the average Alamar Blue fluorescence signals from the control wells were set as 100% non-toxic. The individual signals in each of the compound test wells were then divided by the average control signal and multiplied by 100% to determine […]. To calculate the HCV replicon inhibition values, an average background value was obtained from the two wells containing the highest amount of HCV control inhibitor at the end of the assay period. These numbers were similar to those obtained from naïve Huh-7 cells. The background numbers were then subtracted from the average signal obtained from the control wells and this number was used as 100% activity. The individual signals in each of the compound test wells were then divided by the averaged control values after background subtraction and multiplied by 100% to determine percent activity. EC50 values were calculated as the concentration which caused a 50% reduction in FRET or luciferase activity. The two numbers generated for the compound plate, percent cytoxicity and percent activity, were used to determine compounds of interest for further analysis.

SMILES | IC50 (HCV NS5B RdRp; class symbols) [nM] | EC50 (HCV replicon cells; class symbols) [nM] | IC50 (HCV NS5B RdRp; numeric values) [nM] | EC50 (HCV replicon cells; numeric values) [nM]
COc1ccc2c(c1)C1CC1(C(=O)N1CCCCC1c1nc(C(C)C)no1)Cn1c-2c(C2CCCCC2)c2ccc(C(=O)NS(=O)(=O)N(C)C)cc21 (centres unmarked) | 2 to 500 | 2 to 500 |  | 
COc1ccc2c(c1)C=C(C(=O)N1CCCCC1c1nc(C(C)C)no1)Cn1c-2c(C2CCCCC2)c2ccc(C(=O)NS(=O)(=O)N(C)C)cc21 (centres unmarked) |  |  | 150 | 1000
COc1ccc2c(c1)C1CC1(C(=O)N1CCC(c3nc(C)no3)CC1)Cn1c-2c(C2CCCCC2)c2ccc(C(=O)NS(=O)(=O)N(C)C)cc21 (centres unmarked) |  |  | 30 | 90
COc1ccc2c(c1)C=C(C(=O)N1CCC(c3nc(C)no3)CC1)Cn1c-2c(C2CCCCC2)c2ccc(C(=O)NS(=O)(=O)N(C)C)cc21 |  |  | 90 | 230
COc1ccc2c(c1)C1CC1(C(=O)N1CCC(c3nncn3C)CC1)Cn1c-2c(C2CCCCC2)c2ccc(C(=O)NS(=O)(=O)N(C)C)cc21 (centres unmarked) | 2 to 500 | 2 to 500 |  | 
COc1ccc2c(c1)C=C(C(=O)N1CCC(c3nncn3C)CC1)Cn1c-2c(C2CCCCC2)c2ccc(C(=O)NS(=O)(=O)N(C)C)cc21 | 2 to 500 | 2 to 500 |  | 
COc1ccc2c(c1)C1CC1(C(=O)N1CCC(c3nc(C)no3)CC1)Cn1c-2c(C2CCCCC2)c2ccc(C(=O)NS(=O)(=O)C(C)C)cc21 (centres unmarked) |  |  | 30 | 100
COc1ccc2c(c1)C1CC1(C(=O)N1CCC(c3nnc(N)s3)CC1)Cn1c-2c(C2CCCCC2)c2ccc(C(=O)NS(=O)(=O)N(C)C)cc21 (centres unmarked) |  |  | 60 | 190
COc1ccc2c(c1)C1CC1(C(=O)N1CCC(c3nnc(C)o3)CC1)Cn1c-2c(C2CCCCC2)c2ccc(C(=O)NS(=O)(=O)N(C)C)cc21 (centres unmarked) |  |  | 20 | 50
COc1ccc2c(c1)C1CC1(C(=O)N1CCC(n3c(C)nnc3C)CC1)Cn1c-2c(C2CCCCC2)c2ccc(C(=O)NS(=O)(=O)N(C)C)cc21 (centres unmarked) | 2 to 500 | 2 to 500 |  | 
COc1ccc2c(c1)C1CC1(C(=O)N1CCC(c3nnc(C)o3)CC1)Cn1c-2c(C2CCCCC2)c2ccc(C(=O)NS(=O)(=O)C(C)C)cc21 (centres unmarked) |  |  | 70 | 110
COc1ccc2c(c1)C1CC1(C(=O)N1CCC(c3nnc(-c4ccccc4)o3)CC1)Cn1c-2c(C2CCCCC2)c2ccc(C(=O)NS(=O)(=O)N(C)C)cc21 (centres unmarked) | 2 to 500 | 2 to 500 |  | 
COc1ccc2c(c1)C1CC1(C(=O)N1CCC(c3nc4ccccc4o3)CC1)Cn1c-2c(C2CCCCC2)c2ccc(C(=O)NS(=O)(=O)N(C)C)cc21 (centres unmarked) | 2 to 500 | 2 to 500 |  | 
